From PubChem BioAssay (NCI)
Where “and” joins values, the source holds several entries; their conditions need not be identical. Equal entries are not always repeated.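 A five-concentration, 48-hour dose response in 96-well plates underlies each endpoint, interpolated linearly between surrounding concentrations. Here, GI50 denotes the concentration required for 50% inhibition of growth. TGI: concentration producing complete growth inhibition.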

Tests used:
Assay in all cases: inhibition of tumour cell growth, NCI panel, 48 h
HCT-116 colon = system: HCT-116 colon
DMS 273 small cell lung = system: DMS 273 small cell lung
XF 498 CNS = system: XF 498 CNS
HCT-15 colon = system: HCT-15 colon
TK-10 renal = system: TK-10 renal
DLD-1 colon = system: DLD-1 colon
SK-MEL-5 melanoma = system: SK-MEL-5 melanoma
KM12 colon = system: KM12 colon
A498 renal = system: A498 renal
MDA-MB-435 = system: MDA-MB-435

Row | Structure (SMILES) | TGI (HCT-116 colon) | TGI (DMS 273 small cell lung) | TGI (XF 498 CNS) | TGI (HCT-15 colon) | TGI (TK-10 renal) | TGI (DLD-1 colon) | TGI (SK-MEL-5 melanoma) | TGI (KM12 colon) | TGI (A498 renal) | GI50 (HCT-116 colon) | GI50 (HCT-15 colon) | GI50 (MDA-MB-435) | TGI (MDA-MB-435) | GI50 (TK-10 renal) | GI50 (A498 renal) | GI50 (SK-MEL-5 melanoma) | GI50 (KM12 colon) | GI50 (DLD-1 colon) | GI50 (DMS 273 small cell lung) | GI50 (XF 498 CNS)
1 | Cc1nc(Nc2ccccc2)sc1C(=O)CC(=O)C(=O)Nc1c(C(C)C)cccc1C(C)C | > 100 µM | > 100 µM | > 100 µM | > 100 µM | > 100 µM | > 100 µM | > 100 µM | > 100 µM |  |  |  |  |  |  |  |  |  |  |  | 
2 | O=C(c1ccc(Cl)cc1Cl)C1[C@H]2C(=O)N(c3ccc(Cc4ccc(N5C(=O)[C@@H]6ON(c7ccccc7)C(C(=O)c7ccc(Cl)cc7Cl)[C@@H]6C5=O)cc4)cc3)C(=O)[C@H]2ON1c1ccccc1 (some centres undefined) | > 50 µM | > 50 µM |  | > 50 µM | > 50 µM | > 50 µM | > 50 µM | > 50 µM | > 50 µM |  |  |  |  |  |  |  |  |  |  | 
3 | Cc1ccc2c(c1)-c1c3c(nn1-c1ccccc1)-c1ccccc1SC3O2 (centres undefined) | > 100 µM | > 100 µM | > 100 µM |  | > 100 µM | > 100 µM |  | > 100 µM | > 100 µM |  |  |  |  |  |  |  |  |  |  | 
4 | CCOC(=O)/C(C1=NCCN1)=C(\O)c1ccccc1 | > 100 µM |  | > 100 µM | > 100 µM |  | > 100 µM | > 100 µM | > 100 µM |  |  |  |  |  |  |  |  |  |  |  | 
5 | COc1cc2ccnc3c2c(c1OC)-c1coc(SC)c1-3 | > 100 µM | > 100 µM |  | > 100 µM | > 100 µM | > 100 µM | > 100 µM | > 100 µM | > 100 µM |  |  |  |  |  |  |  |  |  |  | 
6 | c1cncc(C2N3CCCCC3[C@@H]3c4[nH]c5ccccc5c4CCN23)c1 (some centres undefined) | > 100 µM | > 100 µM | > 100 µM | > 100 µM | > 100 µM | > 100 µM | > 100 µM |  | > 100 µM |  |  |  |  |  |  |  |  |  |  | 
7 | CN1CCN(C(=O)C(C)(C)c2ccc(C(=O)Nc3cn4cc(-c5ccncc5)ccc4n3)cc2)CC1 | > 100 µM |  |  | 7.2 µM | > 100 µM |  | 0.382 µM | > 60.3 µM | 0.418 µM | 80.2 nM | 312 nM | 367 nM | 17.5 µM | 484 nM | 157 nM | 188 nM | 175 nM |  |  | 
8 | NC(=O)CN(CC(N)=O)C(N)=O | > 100 µM | > 100 µM | > 100 µM | > 100 µM | > 100 µM |  | > 100 µM | > 100 µM | > 100 µM |  |  |  |  |  |  |  |  |  |  | 
9 | CC(=O)[CH-]C(=O)c1ccccc1.CC(=O)[CH-]C(=O)c1ccccc1.CC[O-].CC[O-].[Hf+4] | > 100 µM |  |  | > 100 µM |  | > 100 µM | > 100 µM | > 100 µM | > 100 µM | > 100000 nM | > 100000 nM |  |  |  | > 100000 nM | > 100000 nM | > 100000 nM | > 100000 nM |  | 
10 | COc1cc2nc(N3CCCC3)nc(NCc3ccccc3)c2cc1OC | 4.12 µM |  |  | 4.22 µM | 3.71 µM |  | 3.12 µM | 17 µM | 8.56 µM | 1820 nM | 1790 nM | 1690 nM | 3.16 µM | 1900 nM | 2160 nM | 1650 nM | 4520 nM |  |  | 
11 | COC1CC(O[C@H]2CC[C@@]3(C)[C@H](CC[C@@H]4[C@@H]3CC[C@]3(C)[C@@H](C5=CC(=O)OC5)[C@@H](OC(C)=O)C[C@]43O)C2)OC(C)C1O (some centres undefined) | < 0.01 µM |  |  | < 0.01 µM | < 0.01 µM |  | < 0.01 µM | < 0.0106 µM | < 0.0137 µM | < 10 nM | < 10 nM | < 10 nM | < 0.0109 µM | < 10 nM | < 10 nM | < 10 nM | < 10 nM |  |  | 
12 | CC1=NN(C(=O)c2ccccc2O)C(=O)/C1=C/c1ccc(O)cc1 | > 100 µM |  |  | > 100 µM | > 100 µM | > 100 µM | > 100 µM | > 100 µM |  |  |  |  |  |  |  |  |  |  |  | 
13 | C=CCN=C(N/N=C/c1ccc([N+](=O)[O-])o1)NS(=O)(=O)c1cc(C(=O)Nc2ccc(Cl)cc2)c(Cl)cc1SC | 4.04 µM |  |  | 13.5 µM | > 100 µM |  | 4.82 µM | > 100 µM | > 100 µM | 935 nM | 2970 nM | 2880 nM | 7.05 µM | > 90800 nM | 28500 nM | 2140 nM | 6890 nM |  |  | 
14 | COc1cc(OC)c(C/C=C/c2ccccc2)cc1O | 30 µM |  |  | 30.1 µM | 29.9 µM |  | 29.3 µM | 31.5 µM | 28.8 µM |  |  |  | 30.7 µM |  |  |  |  |  |  | 
15 | CCCCCCC[CH2][Sn]([CH2]CCCCCCC)([O]c1cccc2cccnc12)[O]c1cccc2cccnc12 | 10.1 µM | 3.99 µM |  | 10.8 µM | 13.7 µM | 2.83 µM | 3.21 µM | 4.19 µM | 5.85 µM | 2370 nM | 2530 nM |  |  | 3850 nM | 2620 nM | 1650 nM | 1910 nM | 1310 nM | 1950 nM | 
16 | C[C@H]1CC[C@@]2(NC1)O[C@H]1C[C@H]3[C@@H]4CC[C@H]5C[C@@H](O)CC[C@]5(C)[C@H]4CC[C@]3(C)[C@H]1[C@@H]2C | 17.3 µM and > 100 µM |  |  | 50 µM and > 100 µM | 25.3 µM and > 100 µM |  | 23.7 µM and > 100 µM | 50 µM and > 100 µM | 35.2 µM and > 100 µM | 8320 nM | 20900 nM | 17300 nM | 50 µM | 11100 nM | 13800 nM | 11700 nM | 19000 nM |  |  | 
17 | CN(C)CCN1C(=O)c2c(c3c4ccccc4n4c3c3c2c2ccccc2n3C2CC(O)C(O)C4(C)O2)C1=O (centres undefined) | 6.71 µM |  |  | 8.72 µM | 13.5 µM |  | 7.14 µM | 10.2 µM | 7.88 µM | 626 nM | 1590 nM | 2000 nM | 7.99 µM | 1320 nM | 1240 nM | 1580 nM | 1740 nM |  |  | 
18 | C[C@@]12CCC(=O)c3coc(c31)C(=O)c1cc3c(cc12)C(=O)C=CC3=O | > 1 µM and 28.7 µM | > 1 µM and 30 µM | > 1 µM and 33.4 µM | > 1 µM and 32.7 µM | > 61 µM | > 1 µM and 30.5 µM | > 1 µM and 28.3 µM | > 61.6 µM | > 100 µM | > 1000 nM | > 1000 nM |  |  | > 1000 nM |  | > 1000 nM | > 1000 nM | > 1000 nM | > 1000 nM | > 1000 nM
19 | CCOc1cc2c(C(=O)CC)c(O)ccc2o1 | > 72.5 µM | > 100 µM | > 80.1 µM | > 100 µM | > 100 µM | > 43.2 µM | > 63.3 µM | > 100 µM | > 94.4 µM |  |  |  |  |  |  |  |  |  |  | 
